Reference: article PMC6001375, “CLERK is a novel receptor kinase required for sensing of root-active CLE peptides in Arabidopsis” (Development (Cambridge, England), 2018)

Tested on: CLERK gene expression
Assay: CLERK::eGFP-GUS reporter expression in root meristem
Format: in vivo, Arabidopsis thaliana
Conditions: 1 μM CLE26, 5 min vs 60 min (Fig. S1E); compared with VISUAL assay
Text: B overlay of PI fluorescence withGFP channel, in absence of GFPC overlay of GFP fluorescence withPI channel, in absence of PI […]
Figure S1 – Supplemental figure. (A) Phylogenetic tree of the class II LRR-RKs of Arabidopsis. (B) Col-0 wild type control root meristem, […]
5 days old, confocal microscopy. Left: GFP channel, yellow, note some background on the root edges; Right: Overlay of GFP channel with […]
PI cell wall staining (cyan). (C) CLERK-GFP fusion protein expression pattern, confocal microscopy, imaged without PI cell wall staining.
Left: GFP fluorescence, yellow; Right: Overlay of GFP fluorescence with PI channel, note increased background. (D) BAM3-CITRINE fusion […]
protein expression pattern in a clerk mutant root meristem, confocal microscopy. Left: CITRINE fluorescence, yellow; Right: Overlay of CITRINE […]
fluorescence with PI cell wall staining (cyan). Asterisks indicate protophloem sieve element cell files. (E) CLERK gene expression in response […]
to CLE26 treatment, as monitored by GFP fluorescence in the root meristem of a Col-0 seedling that carried a CLERK::eGFP-GUS transgene, […]
confocal microscopy. The same root is shown at the beginning and end of a time course. GFP fluorescence, yellow; […]

Sequence: RKVPRGPDPIHN [CLE26]
- CLERK downregulation in the root meristem: an equally strong effect was not observed in the root meristem
